From patent US12522583B2, “Benzimidazole derivatives and aza-benzimidazole derivatives as Janus kinase 2 inhibitors and uses thereof” (Dana-Farber Cancer Institute, Inc., priority 2018, dated 2026)

Tests used:
JAK2 = JAK2 (Homo sapiens (Human), UniProt O60674); experiment: JAK2 Z-Lyte biochemical assay
Description: Example 3. JAK2 Z-Lyte Biochemical Assay of the Compounds of the Present Disclosure
The JAK2 Z-Lyte biochemical assay was performed according to manufacturer's instructions (Life Technologies).

ERK4 = ERK4 (Homo sapiens (Human), UniProt P31152); experiment: KINOMEscan; assay type: binding; conditions: read-out: percent control
Source text: (§1) Example 2. In Vitro Kinase Selectivity Profiling of the Compounds of the Present Disclosure

PKNB(M.tuberculosis) = PKNB(M.tuberculosis) (Mycobacterium tuberculosis (strain ATCC 25618 / H37Rv), UniProt P9WI81); experiment: KINOMEscan; assay type: binding; conditions: read-out: percent control
Source text: as §1

ERK1 = ERK1 (Homo sapiens (Human), UniProt P27361); experiment: KINOMEscan; assay type: binding; conditions: read-out: percent control
Source text: as §1

TYRO3 = TYRO3 (Homo sapiens (Human), UniProt Q06418); experiment: KINOMEscan; assay type: binding; conditions: read-out: percent control
Source text: as §1

NDR1 = NDR1 (Homo sapiens (Human), UniProt Q15208); experiment: KINOMEscan; assay type: binding; conditions: read-out: percent control
Source text: as §1

PDGFRB = PDGFRB (Homo sapiens (Human), UniProt P09619); experiment: KINOMEscan; assay type: binding; conditions: read-out: percent control
Source text: as §1

MAPKAPK2 = MAPKAPK2 (Homo sapiens (Human), UniProt P49137); experiment: KINOMEscan; assay type: binding; conditions: read-out: percent control
Source text: as §1

[1] = biological target: ABL1(H396P)-nonphosphorylated (Homo sapiens (Human), UniProt P00519, H396P); experiment: KINOMEscan; assay type: binding; conditions: read-out: percent control
Source text: as §1

ACVR2A = ACVR2A (Homo sapiens (Human), UniProt P27037); experiment: KINOMEscan; assay type: binding; conditions: read-out: percent control
Source text: as §1

CIT = CIT (Homo sapiens (Human), UniProt O14578); experiment: KINOMEscan; assay type: binding; conditions: read-out: percent control
Source text: as §1

[2] = biological target: JAK1(JH1domain-catalytic) (Homo sapiens (Human), UniProt P23458); experiment: KINOMEscan; assay type: binding; conditions: read-out: percent control
Source text: as §1

TAK1 = TAK1 (Homo sapiens (Human), UniProt O43318); experiment: KINOMEscan; assay type: binding; conditions: read-out: percent control
Source text: as §1

GRK1 = GRK1 (Homo sapiens (Human), UniProt Q15835); experiment: KINOMEscan; assay type: binding; conditions: read-out: percent control
Source text: as §1

ALK(L1196M) = ALK(L1196M) (Homo sapiens (Human), UniProt Q9UM73, L1196M); experiment: KINOMEscan; assay type: binding; conditions: read-out: percent control
Source text: as §1

EPHA1 = EPHA1 (Homo sapiens (Human), UniProt P21709); experiment: KINOMEscan; assay type: binding; conditions: read-out: percent control
Source text: as §1

PFPK5(P.falciparum) = PFPK5(P.falciparum) (Plasmodium falciparum (isolate 3D7), UniProt P61075); experiment: KINOMEscan; assay type: binding; conditions: read-out: percent control
Source text: as §1

ACVR2B = ACVR2B (Homo sapiens (Human), UniProt Q13705); experiment: KINOMEscan; assay type: binding; conditions: read-out: percent control
Source text: as §1

MAP3K4 = MAP3K4 (Homo sapiens (Human), UniProt Q9Y6R4); experiment: KINOMEscan; assay type: binding; conditions: read-out: percent control
Source text: as §1

MKK7 = MKK7 (Homo sapiens (Human), UniProt O14733); experiment: KINOMEscan; assay type: binding; conditions: read-out: percent control
Source text: as §1

BRK = BRK (Homo sapiens (Human), UniProt Q13882); experiment: KINOMEscan; assay type: binding; conditions: read-out: percent control
Source text: as §1

MLK2 = MLK2 (Homo sapiens (Human), UniProt Q02779); experiment: KINOMEscan; assay type: binding; conditions: read-out: percent control
Source text: as §1

MRCKB = MRCKB (Homo sapiens (Human), UniProt Q9Y5S2); experiment: KINOMEscan; assay type: binding; conditions: read-out: percent control
Source text: as §1

CSF1R-autoinhibited = CSF1R-autoinhibited (Homo sapiens (Human), UniProt P07333); experiment: KINOMEscan; assay type: binding; conditions: read-out: percent control
Source text: as §1

ANKK1 = ANKK1 (Homo sapiens (Human), UniProt Q8NFD2); experiment: KINOMEscan; assay type: binding; conditions: read-out: percent control
Source text: as §1

FER = FER (Homo sapiens (Human), UniProt P16591); experiment: KINOMEscan; assay type: binding; conditions: read-out: percent control
Source text: as §1

MAP4K3 = MAP4K3 (Homo sapiens (Human), UniProt Q8IVH8); experiment: KINOMEscan; assay type: binding; conditions: read-out: percent control
Source text: as §1

ERBB2 = ERBB2 (Homo sapiens (Human), UniProt P04626); experiment: KINOMEscan; assay type: binding; conditions: read-out: percent control
Source text: as §1

Sequence of MKK7 (O14733 whole entry): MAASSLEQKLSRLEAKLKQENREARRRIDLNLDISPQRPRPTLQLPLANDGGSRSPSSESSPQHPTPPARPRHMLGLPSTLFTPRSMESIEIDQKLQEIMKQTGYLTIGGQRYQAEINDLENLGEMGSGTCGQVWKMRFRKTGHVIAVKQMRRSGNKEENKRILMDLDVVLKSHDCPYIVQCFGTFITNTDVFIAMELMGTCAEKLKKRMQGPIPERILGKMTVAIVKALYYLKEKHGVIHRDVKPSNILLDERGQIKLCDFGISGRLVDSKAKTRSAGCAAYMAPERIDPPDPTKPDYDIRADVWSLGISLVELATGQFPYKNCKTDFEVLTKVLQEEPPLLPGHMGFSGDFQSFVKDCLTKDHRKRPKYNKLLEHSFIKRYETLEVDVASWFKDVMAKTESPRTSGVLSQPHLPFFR
Sequence of ANKK1 (Q8NFD2 whole entry): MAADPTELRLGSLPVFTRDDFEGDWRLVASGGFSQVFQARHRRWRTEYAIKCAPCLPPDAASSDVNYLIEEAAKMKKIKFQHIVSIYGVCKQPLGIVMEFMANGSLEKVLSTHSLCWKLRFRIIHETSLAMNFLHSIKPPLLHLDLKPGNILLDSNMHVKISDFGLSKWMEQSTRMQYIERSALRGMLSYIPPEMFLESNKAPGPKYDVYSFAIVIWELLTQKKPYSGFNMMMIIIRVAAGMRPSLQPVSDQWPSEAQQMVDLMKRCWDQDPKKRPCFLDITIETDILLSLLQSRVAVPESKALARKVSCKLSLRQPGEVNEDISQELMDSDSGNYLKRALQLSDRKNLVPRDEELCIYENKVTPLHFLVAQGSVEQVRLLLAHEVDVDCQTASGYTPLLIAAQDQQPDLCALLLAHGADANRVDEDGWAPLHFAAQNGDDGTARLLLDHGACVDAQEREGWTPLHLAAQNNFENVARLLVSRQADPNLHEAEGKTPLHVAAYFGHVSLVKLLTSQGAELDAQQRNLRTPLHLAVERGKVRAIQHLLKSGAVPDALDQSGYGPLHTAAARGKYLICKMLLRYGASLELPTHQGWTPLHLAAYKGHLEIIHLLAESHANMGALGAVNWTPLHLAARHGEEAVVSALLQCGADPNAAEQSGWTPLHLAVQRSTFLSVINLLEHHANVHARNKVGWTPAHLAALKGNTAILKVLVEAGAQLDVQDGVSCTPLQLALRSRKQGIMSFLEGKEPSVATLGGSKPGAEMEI
Sequence of FER (P16591 whole entry): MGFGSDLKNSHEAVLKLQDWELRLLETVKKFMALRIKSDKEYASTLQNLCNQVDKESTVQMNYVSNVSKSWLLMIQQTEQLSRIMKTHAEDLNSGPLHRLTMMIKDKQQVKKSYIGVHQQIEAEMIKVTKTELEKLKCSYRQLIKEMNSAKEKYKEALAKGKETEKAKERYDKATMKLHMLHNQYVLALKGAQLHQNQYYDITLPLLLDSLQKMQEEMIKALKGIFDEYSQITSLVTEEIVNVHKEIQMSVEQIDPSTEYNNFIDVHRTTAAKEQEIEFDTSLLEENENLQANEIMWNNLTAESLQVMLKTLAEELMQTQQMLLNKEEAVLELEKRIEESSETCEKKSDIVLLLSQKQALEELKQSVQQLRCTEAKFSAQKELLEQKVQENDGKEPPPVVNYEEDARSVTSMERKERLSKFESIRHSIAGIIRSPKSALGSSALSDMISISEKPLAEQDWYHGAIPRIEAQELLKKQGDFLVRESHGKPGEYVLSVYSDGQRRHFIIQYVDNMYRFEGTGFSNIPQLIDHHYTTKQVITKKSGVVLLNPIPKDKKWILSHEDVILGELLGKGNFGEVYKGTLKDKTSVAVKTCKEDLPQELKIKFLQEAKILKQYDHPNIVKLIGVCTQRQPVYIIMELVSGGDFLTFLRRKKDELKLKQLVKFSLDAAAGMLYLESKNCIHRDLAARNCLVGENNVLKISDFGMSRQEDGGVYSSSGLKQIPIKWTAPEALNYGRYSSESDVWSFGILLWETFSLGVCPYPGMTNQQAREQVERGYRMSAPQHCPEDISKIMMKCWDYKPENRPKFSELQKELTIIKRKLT
Sequence of ALK(L1196M) (Q9UM73 19-1620 L1196M): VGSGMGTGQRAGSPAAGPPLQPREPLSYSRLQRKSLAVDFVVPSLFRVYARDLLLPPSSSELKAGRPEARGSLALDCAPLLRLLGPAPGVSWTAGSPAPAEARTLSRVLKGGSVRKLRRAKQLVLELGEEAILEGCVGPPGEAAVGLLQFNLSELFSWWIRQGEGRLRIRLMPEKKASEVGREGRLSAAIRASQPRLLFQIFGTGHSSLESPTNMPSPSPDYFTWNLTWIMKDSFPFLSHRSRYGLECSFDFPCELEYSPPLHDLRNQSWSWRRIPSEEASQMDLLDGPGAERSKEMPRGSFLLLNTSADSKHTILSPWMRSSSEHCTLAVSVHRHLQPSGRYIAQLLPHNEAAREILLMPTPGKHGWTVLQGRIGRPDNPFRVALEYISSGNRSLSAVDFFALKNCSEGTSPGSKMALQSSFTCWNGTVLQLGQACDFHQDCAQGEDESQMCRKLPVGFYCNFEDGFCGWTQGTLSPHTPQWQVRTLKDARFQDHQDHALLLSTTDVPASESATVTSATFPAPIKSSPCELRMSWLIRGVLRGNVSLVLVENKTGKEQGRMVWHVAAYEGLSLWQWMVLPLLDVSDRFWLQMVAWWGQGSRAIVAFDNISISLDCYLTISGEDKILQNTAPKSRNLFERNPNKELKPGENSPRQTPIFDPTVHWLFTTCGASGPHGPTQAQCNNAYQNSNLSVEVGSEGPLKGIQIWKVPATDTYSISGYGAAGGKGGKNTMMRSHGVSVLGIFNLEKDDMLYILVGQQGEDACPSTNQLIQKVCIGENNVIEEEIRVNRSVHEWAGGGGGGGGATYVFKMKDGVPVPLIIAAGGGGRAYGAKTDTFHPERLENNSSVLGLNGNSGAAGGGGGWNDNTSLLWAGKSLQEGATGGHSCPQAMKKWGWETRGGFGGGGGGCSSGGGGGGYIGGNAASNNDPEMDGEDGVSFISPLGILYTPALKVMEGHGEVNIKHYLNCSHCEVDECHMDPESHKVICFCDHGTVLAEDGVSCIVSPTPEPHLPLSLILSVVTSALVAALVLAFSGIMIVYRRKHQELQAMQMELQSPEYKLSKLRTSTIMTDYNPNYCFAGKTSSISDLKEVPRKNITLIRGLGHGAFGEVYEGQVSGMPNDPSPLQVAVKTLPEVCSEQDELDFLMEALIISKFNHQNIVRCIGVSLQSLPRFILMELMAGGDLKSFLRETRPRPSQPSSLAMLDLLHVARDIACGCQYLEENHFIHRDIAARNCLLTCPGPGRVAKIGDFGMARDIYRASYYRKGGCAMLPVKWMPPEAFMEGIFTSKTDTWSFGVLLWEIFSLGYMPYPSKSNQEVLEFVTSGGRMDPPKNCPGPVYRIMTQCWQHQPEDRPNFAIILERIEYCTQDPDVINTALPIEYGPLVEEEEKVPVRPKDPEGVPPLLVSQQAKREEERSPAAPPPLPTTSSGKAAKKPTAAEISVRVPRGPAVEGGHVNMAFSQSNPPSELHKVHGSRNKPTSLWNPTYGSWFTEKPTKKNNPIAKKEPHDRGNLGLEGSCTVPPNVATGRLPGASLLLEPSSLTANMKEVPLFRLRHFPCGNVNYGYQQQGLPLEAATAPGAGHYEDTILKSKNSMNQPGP
Sequence of MAPKAPK2 (P49137 whole entry): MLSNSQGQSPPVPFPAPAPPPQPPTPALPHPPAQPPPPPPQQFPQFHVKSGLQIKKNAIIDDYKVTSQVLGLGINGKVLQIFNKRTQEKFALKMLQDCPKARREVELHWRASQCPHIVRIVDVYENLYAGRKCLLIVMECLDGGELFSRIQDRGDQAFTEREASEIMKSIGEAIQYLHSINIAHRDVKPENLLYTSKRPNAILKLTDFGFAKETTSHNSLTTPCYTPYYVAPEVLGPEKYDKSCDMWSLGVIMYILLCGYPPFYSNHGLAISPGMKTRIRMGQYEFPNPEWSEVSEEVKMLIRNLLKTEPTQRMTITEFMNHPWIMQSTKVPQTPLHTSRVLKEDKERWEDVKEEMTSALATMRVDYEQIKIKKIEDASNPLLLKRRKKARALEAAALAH
Sequence of NDR1 (Q15208 whole entry): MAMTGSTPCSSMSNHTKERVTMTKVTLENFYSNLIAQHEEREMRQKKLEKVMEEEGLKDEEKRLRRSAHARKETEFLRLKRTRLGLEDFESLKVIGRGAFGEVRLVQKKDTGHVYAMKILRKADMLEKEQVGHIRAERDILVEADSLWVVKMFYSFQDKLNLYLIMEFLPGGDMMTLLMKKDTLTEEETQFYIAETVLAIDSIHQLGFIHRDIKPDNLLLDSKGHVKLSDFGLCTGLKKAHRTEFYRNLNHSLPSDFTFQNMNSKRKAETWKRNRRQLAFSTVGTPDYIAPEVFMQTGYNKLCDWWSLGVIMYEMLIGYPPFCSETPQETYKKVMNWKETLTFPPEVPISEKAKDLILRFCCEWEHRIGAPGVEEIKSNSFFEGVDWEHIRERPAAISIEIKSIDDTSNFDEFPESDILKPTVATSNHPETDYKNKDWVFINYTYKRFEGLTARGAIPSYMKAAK
Sequence of JAK1(JH1domain-catalytic) (P23458 875-1153 limits assumed): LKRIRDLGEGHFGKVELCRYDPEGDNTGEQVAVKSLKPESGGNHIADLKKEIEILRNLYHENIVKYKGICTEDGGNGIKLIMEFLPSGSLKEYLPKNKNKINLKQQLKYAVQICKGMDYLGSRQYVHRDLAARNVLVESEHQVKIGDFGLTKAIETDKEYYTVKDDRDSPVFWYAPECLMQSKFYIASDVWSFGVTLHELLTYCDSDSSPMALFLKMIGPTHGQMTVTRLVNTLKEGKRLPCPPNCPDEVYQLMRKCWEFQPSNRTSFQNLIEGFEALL

| SMILES | IC50 (JAK2) [µM] | remaining binding at 1 µM (ERK4) [%] | remaining binding at 1 µM (PKNB(M.tuberculosis)) [%] | remaining binding at 1 µM (ERK1) [%] | remaining binding at 1 µM (TYRO3) [%] | remaining binding at 1 µM (NDR1) [%] | remaining binding at 1 µM (PDGFRB) [%] | remaining binding at 1 µM (MAPKAPK2) [%] | remaining binding at 1 µM [1] [%] | remaining binding at 1 µM (ACVR2A) [%] | remaining binding at 1 µM (CIT) [%] | remaining binding at 1 µM [2] [%] | remaining binding at 1 µM (TAK1) [%] | remaining binding at 1 µM (GRK1) [%] | remaining binding at 1 µM (ALK(L1196M)) [%] | remaining binding at 1 µM (EPHA1) [%] | remaining binding at 1 µM (PFPK5(P.falciparum)) [%] | remaining binding at 1 µM (ACVR2B) [%] | remaining binding at 1 µM (MAP3K4) [%] | remaining binding at 1 µM (MKK7) [%] | other results |
| --- | --- | --- | --- | --- | --- | --- | --- | --- | --- | --- | --- | --- | --- | --- | --- | --- | --- | --- | --- | --- | --- |
| CCN1CCN(Cc2ccc(Nc3nc4ccc(Oc5ccnc(NC(C)=O)c5)cc4n3C)cc2C(F)(F)F)CC1 [Compound I-2] | 0.794 | 100 | 80 | 100 | 100 | 90 | 0 | 78 | 0.05 | 100 | 90 | 30 | 28 | 82 | 78 | 100 | 100 | 97 | 100 | 80 | remaining binding at 1 µM (BRK): 100%; remaining binding at 1 µM (MLK2): 100%; remaining binding at 1 µM (MRCKB): 100%; remaining binding at 1 µM (CSF1R-autoinhibited): 52%; remaining binding at 1 µM (ANKK1): 100%; remaining binding at 1 µM (FER): 91%; remaining binding at 1 µM (MAP4K3): 71%; remaining binding at 1 µM (ERBB2): 95% |
| CCN1CCN(Cc2ccc(Nc3nc4ccc(Oc5ccnc(NC(C)=O)c5)c(C)c4n3C)cc2C(F)(F)F)CC1 [Compound I-6, N-(4-(2-(4-((4-ethylpiperazin-1-yl)methyl)-3-(trifluoromethyl)phenylamino)-1,7-dimethyl-1H-benzo[d]imidazol-6-yloxy)pyridin-2-yl)acetamide] | 0.98 | 90 | 82 | 100 | 100 | 100 | 0.05 | 100 | 1.1 | 100 | 79 | 40 | 10 | 85 | 51 | 46 | 91 | 100 | 60 | 94 | remaining binding at 1 µM (BRK): 89%; remaining binding at 1 µM (MLK2): 95%; remaining binding at 1 µM (MRCKB): 100%; remaining binding at 1 µM (CSF1R-autoinhibited): 68%; remaining binding at 1 µM (ANKK1): 100%; remaining binding at 1 µM (FER): 100%; remaining binding at 1 µM (MAP4K3): 74%; remaining binding at 1 µM (ERBB2): 100% |
